Experimental data from ChEMBL document CHEMBL1149805, “Antibacterial activity of a novel series of 3-bromo-4-(1H-3-indolyl)-2,5-dihydro-1H-2,5-pyrroledione derivatives--an extended structure-activity relationship study” (Eur J Med Chem, 2008).
In brackets after ≈: the same amount, converted by molar mass. Activity calls are given as the source filed them. No rule for the calls is given here.

Assays:
Staphylococcus aureus = assay: Antibacterial activity against Staphylococcus aureus 134/93 after 24 hrs by broth microdilution method; assay type: functional; conditions: for MIC: Staphylococcus aureus, 134/93, 24 h
[1] = test system: Mycolicibacterium smegmatis; assay: Antibacterial activity against Mycobacterium smegmatis SG987 after 24 hrs by broth microdilution method; assay type: functional; conditions: for MIC: Mycolicibacterium smegmatis, SG987, 24 h
Escherichia coli = assay: Antibacterial activity against Escherichia coli after 24 hrs by broth microdilution method; assay type: functional, organism-based
Candida albicans = assay: Antibacterial activity against Candida albicans after 24 hrs by broth microdilution method; assay type: functional, organism-based
[2] = Partition coefficient, log P of the compound; assay type: physicochemical; conditions: octanol/water

Row | Structure (SMILES) | MIC (Staphylococcus aureus) [µM] | MIC [1] [µM] | logP [2] | -logMIC (Staphylococcus aureus) | -logMIC [1] | Activity (Escherichia coli) | Activity (Candida albicans)
1 | CCCCCCCCOc1ccc(-c2[nH]c3ccccc3c2C2=C(Br)C(=O)NC2=O)cc1 | 50 (≈ 24.8 µg/mL) | 100 (≈ 49.5 µg/mL) | 5.21 | 4.3 | 4 | inactive | inactive
2 | O=C(CCCCCCc1[nH]c2ccccc2c1C1=C(Br)C(=O)NC1=O)Nc1ccccc1 | 0.1 (≈ 0.0494 µg/mL) | 12.6 (≈ 6.23 µg/mL) | 2.85 | 7 | 4.9 | inactive | inactive
3 | COc1ccc2[nH]c(-c3ccccc3)c(C3=C(Br)C(=O)NC3=O)c2c1 | 1 (≈ 0.397 µg/mL) | 31.5 (≈ 12.5 µg/mL) | 2.48 | 6 | 4.5 | inactive | inactive
4 | CCCCOc1ccc2[nH]c(-c3ccc(OC)cc3)c(C3=C(Br)C(=O)NC3=O)c2c1 | 0.1 (≈ 0.0469 µg/mL) |  | 3.43 | 7 |  | inactive | inactive
5 | CCCOc1ccc2[nH]c(-c3ccc(OC)cc3)c(C3=C(Br)C(=O)NC3=O)c2c1 | 0.44 (≈ 0.2 µg/mL) |  | 3.12 | 6.4 |  | inactive | inactive
6 | CCCCCCc1ccc2[nH]c(-c3ccc(OC)cc3)c(C3=C(Br)C(=O)NC3=O)c2c1 |  |  |  |  |  | inactive | inactive
7 | O=C(CCc1[nH]c2ccccc2c1C1=C(Br)C(=O)NC1=O)Nc1ccccc1 | 0.18 (≈ 0.0789 µg/mL) | 21 (≈ 9.2 µg/mL) | 2.42 | 6.7 | 4.7 | inactive | inactive
8 | CCCCCCc1ccc2[nH]c(-c3ccccc3)c(C3=C(Br)C(=O)NC3=O)c2c1 |  |  | 4.39 |  |  | inactive | inactive
9 | Cc1cccc2c(C3=C(Br)C(=O)NC3=O)c(-c3ccccc3)[nH]c12 | 3.98 (≈ 1.52 µg/mL) | 32.6 (≈ 12.4 µg/mL) | 3.19 | 5.4 | 4.5 | inactive | inactive
10 | CCc1cccc2c(C3=C(Br)C(=O)NC3=O)c(-c3ccccc3)[nH]c12 | 2.51 (≈ 0.992 µg/mL) | 31.7 (≈ 12.5 µg/mL) | 3.42 | 5.7 | 4.5 | inactive | inactive
11 | CCCCCCc1ccc2[nH]c(-c3cccc(OC)c3)c(C3=C(Br)C(=O)NC3=O)c2c1 | 26 (≈ 12.5 µg/mL) | 6.31 (≈ 3.04 µg/mL) | 4.26 | 4.6 | 5.2 | inactive | inactive
12 | CCCCCc1cccc2c(C3=C(Br)C(=O)NC3=O)c(-c3ccccc3)[nH]c12 | 0.5 (≈ 0.219 µg/mL) | 14.3 (≈ 6.25 µg/mL) | 4.11 | 6.3 | 4.9 | inactive | inactive
13 | COc1ccc(-c2[nH]c3c(C)cccc3c2C2=C(Br)C(=O)NC2=O)cc1 | 2 (≈ 0.823 µg/mL) | 30.4 (≈ 12.5 µg/mL) | 3.12 | 5.7 | 4.5 | inactive | inactive
14 | CCCCCCCCCCOc1ccc(-c2[nH]c3ccccc3c2C2=C(Br)C(=O)NC2=O)cc1 |  | 100 (≈ 52.3 µg/mL) | 5.94 |  | 4 | inactive | inactive
15 | CCCCCOc1ccc2[nH]c(-c3ccc(OC)cc3)c(C3=C(Br)C(=O)NC3=O)c2c1 |  |  | 3.77 |  |  | inactive | inactive
16 | CCCCCCc1cccc2c(C3=C(Br)C(=O)NC3=O)c(-c3ccc(OC)cc3)[nH]c12 | 0.4 (≈ 0.193 µg/mL) |  | 4.27 | 6.4 |  | inactive | inactive

The next lines start with results.

Row | MIC (Staphylococcus aureus) [µM] | MIC [1] [µM] | logP [2] | Structure (SMILES) | -logMIC (Staphylococcus aureus) | -logMIC [1] | Activity (Escherichia coli) | Activity (Candida albicans)
17 | 0.2 (≈ 0.0823 µg/mL) | 7.94 (≈ 3.27 µg/mL) | 3.12 | COc1cccc(-c2[nH]c3ccc(C)cc3c2C2=C(Br)C(=O)NC2=O)c1 | 6.6 | 5.1 | inactive | inactive
18 | 0.88 (≈ 0.399 µg/mL) | 126 (≈ 57.1 µg/mL) | 4.2 | CCCCCOc1ccc(-c2[nH]c3ccccc3c2C2=C(Br)C(=O)NC2=O)cc1 | 6.1 | 3.9 | inactive | inactive
19 | 0.45 (≈ 0.198 µg/mL) | 15.8 (≈ 6.96 µg/mL) | 3.87 | CCCCOc1ccc(-c2[nH]c3ccccc3c2C2=C(Br)C(=O)NC2=O)cc1 | 6.3 | 4.8 | inactive | inactive
20 | 0.5 (≈ 0.213 µg/mL) | 3.98 (≈ 1.69 µg/mL) | 3.35 | CCc1ccc2[nH]c(-c3cccc(OC)c3)c(C3=C(Br)C(=O)NC3=O)c2c1 | 6.3 | 5.4 | inactive | inactive
21 | 0.5 (≈ 0.205 µg/mL) | 3.8 (≈ 1.56 µg/mL) | 3.43 | CCCc1ccc2[nH]c(-c3ccccc3)c(C3=C(Br)C(=O)NC3=O)c2c1 | 6.3 | 5.4 | inactive | inactive
22 | 0.25 (≈ 0.113 µg/mL) |  | 3.81 | CCCCc1cccc2c(C3=C(Br)C(=O)NC3=O)c(-c3ccc(OC)cc3)[nH]c12 | 6.6 |  | inactive | inactive
23 | 3.5 (≈ 1.54 µg/mL) | 6.31 (≈ 2.78 µg/mL) | 2.97 | CCOc1ccc2[nH]c(-c3cccc(OC)c3)c(C3=C(Br)C(=O)NC3=O)c2c1 | 5.5 | 5.2 | inactive | inactive
24 | 0.13 (≈ 0.0514 µg/mL) | 4 (≈ 1.58 µg/mL) | 3.15 | CCc1ccc2[nH]c(-c3ccccc3)c(C3=C(Br)C(=O)NC3=O)c2c1 | 6.9 | 5.4 | inactive | inactive
25 | 12.6 (≈ 6.27 µg/mL) | 6.31 (≈ 3.14 µg/mL) | 3.92 | CCCCCCOc1ccc2[nH]c(-c3cccc(OC)c3)c(C3=C(Br)C(=O)NC3=O)c2c1 | 4.9 | 5.2 | inactive | inactive
26 | 0.32 (≈ 0.127 µg/mL) | 15.8 (≈ 6.3 µg/mL) | 2.42 | COc1ccc(-c2[nH]c3ccccc3c2C2=C(Br)C(=O)NC2=O)cc1 | 6.5 | 4.8 | inactive | inactive
27 | 0.32 (≈ 0.149 µg/mL) | 17.1 (≈ 7.97 µg/mL) | 2.56 | Cc1ccccc1NC(=O)CCCc1[nH]c2ccccc2c1C1=C(Br)C(=O)NC1=O | 6.5 | 4.8 | inactive | inactive
28 | 0.13 (≈ 0.0496 µg/mL) | 4.1 (≈ 1.56 µg/mL) | 2.88 | Cc1ccc2[nH]c(-c3ccccc3)c(C3=C(Br)C(=O)NC3=O)c2c1 | 6.9 | 5.4 | inactive | inactive
29 |  |  | 4.08 | CCCCCCOc1ccc2[nH]c(-c3ccccc3)c(C3=C(Br)C(=O)NC3=O)c2c1 |  |  | inactive | inactive
30 | 38.1 (≈ 12.6 µg/mL) | 1.2 (≈ 0.398 µg/mL) |  | O=C(O)c1cn(C2CC2)c2cc(N3CCNCC3)c(F)cc2c1=O [CIPROFLOXACIN] | 4.4 | 5.9 |  | 
31 |  |  | 4.1 | CCCCCCOc1ccc2[nH]c(-c3ccc(OC)cc3)c(C3=C(Br)C(=O)NC3=O)c2c1 |  |  | inactive | inactive
